From patent US7754866B2 (Arena Pharmaceuticals, Inc., priority 1997, dated 2010) come the findings set out here.

The structures appear in SMILES notation. Values joined by “and” are separate entries in the source; they are usually repeats but may differ in a detail not shown here. Equal entries are not always repeated. Where two headings read alike, the source gives them in different places.

Test [1] concerns the target T1, human mutated 5HT2A receptor, AP-3 (Homo sapiens, UniProt P28223, T25N).
T1 construct: Inositol Phosphate Accumulation AP-3 IC50 Value (nM); other: several concentrations; IP3 % of Control; other: one concentration of 10 μM, triplicate; control without test compound
The test is described as follows: Inositol phosphate accumulation assay, AP-3.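 As to all read-outs here: transfected 293 cells prelabeled with 3H-inositol, exposed to compound 120 min at 37 °C with LiCl and pargyline, inositol trisphosphates isolated by anion exchange and counted by scintillation.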 In kind it is cell-based. Conditions: for remaining activity at 10 µM: read-out: IP3 % of Control.

Test [2] concerns the target T2, wild type human 5HT2A receptor (Homo sapiens, UniProt P28223).
T2 construct: expressed in transfected cells; host or cells: COS-7 cells, pCMV vector
The test is described as follows: Competitive binding assay, [3H]LSD, WT 5HT2A. Conditions: for difference in selectivity preference (IC50 values) for the 5HT2A receptor compared with the 5HT2C receptor: 5HT2A versus 5HT2C.

Where [3] appears, read: several concentrations, read-out: IP3 AP-3 IC50.
[4] abbreviates: competitive binding using LSD, read-out: WT 5HT2A LSD IC50.
[5] abbreviates: one concentration of 10 μM, triplicate, control without test compound.

T1 sequence (P28223 whole entry T25N, looked up): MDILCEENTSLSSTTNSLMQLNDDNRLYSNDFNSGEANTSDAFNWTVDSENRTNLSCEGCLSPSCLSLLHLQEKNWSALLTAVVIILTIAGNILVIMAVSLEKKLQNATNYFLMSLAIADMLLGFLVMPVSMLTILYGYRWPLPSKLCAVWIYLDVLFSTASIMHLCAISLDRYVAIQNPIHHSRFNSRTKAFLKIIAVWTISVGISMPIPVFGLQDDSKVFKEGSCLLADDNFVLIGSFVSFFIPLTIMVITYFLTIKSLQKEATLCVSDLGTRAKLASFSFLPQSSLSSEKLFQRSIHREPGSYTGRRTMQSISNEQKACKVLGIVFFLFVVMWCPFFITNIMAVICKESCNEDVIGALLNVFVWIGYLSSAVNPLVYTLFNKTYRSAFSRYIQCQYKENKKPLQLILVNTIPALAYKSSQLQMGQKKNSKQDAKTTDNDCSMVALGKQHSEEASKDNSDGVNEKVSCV
T2 sequence (P28223 whole entry T25N/H452Y): as the sequence (P28223 whole entry T25N, looked up) above, with H452Y counted along it

Broadly, the IC50 is the midpoint of a concentration-inhibition curve. For the compound `Cn1cc(Br)c(-c2cccc(NC(=O)Nc3ccc(OC(F)(F)F)cc3)c2)n1` [Compound 103487, N-[3-(4-bromo-1-methylpyrazol-3-yl)phenyl][{(4-trifluoromethoxy)phenyl}amino]carboxamide], the IC50 in test [1] (read-out: Inositol Phosphate Accumulation AP-3 IC50 Value) is 52 nM and 90 nM; in test [2] (1 nM [3H]LSD, COS7 membranes, read-out: Competitive Binding WT 5HT2A ([3H]LSD) IC50 Value) it was 46 nM.

In the case of `CSc1ccc(NC(=O)Nc2cccc(-c3nn(C)cc3Br)c2)cc1` [Compound 116079, N-[3-(4-bromo-1-methylpyrazol-3-yl)phenyl][(4-methylthiophenyl)amino]carboxamide], in test [1], the remaining activity at 10 µM was 16%. In addition, the IC50 in test [1] (setting [3]) amounted to 17 nM; in test [2] (setting [4]) it was 4 nM.

With `Cn1cc(Br)c(-c2cccc(NC(=O)Nc3ccc(Cl)cc3)c2)n1` [Compound 116081, N-[3-(4-bromo-1-methylpyrazol-3-yl)phenyl][(4-chlorophenyl)amino]carboxamide], the remaining activity at 10 µM in test [1] was 10%. Besides, the results for the 50% inhibitory concentration (IC50) in test [1] (setting [3]) and in test [2] (setting [4]) were 3.2 nM and 11 nM, respectively. Also, the “difference in selectivity preference (IC50 values) for the 5HT2A receptor compared with the 5HT2C receptor” value in test [2] worked out at 100 fold.

With `Cn1cc(Br)c(-c2cccc(NC(=O)Nc3ccc(F)cc3)c2)n1` [Compound 116082, {[3-(4-bromo-1-methylpyrazol-3-yl)phenyl]-amino}-N-(4-fluorophenyl)carboxamide], the remaining activity at 10 µM in test [1] amounted to 11%. Besides, in test [2], the “difference in selectivity preference (IC50 values) for the 5HT2A receptor compared with the 5HT2C receptor” value is 100 fold. Further, the IC50 in test [2] (setting [4]) stood at 7 nM.

For the compound `Cn1cc(Br)c(-c2cccc(NC(=O)Nc3ccccc3OC(F)(F)F)c2)n1` [Compound 116087, {[3-(4-bromo-1-methylpyrazol-3-yl)phenyl]-amino}-N-[2-(trifluoromethoxy)phenyl]carboxamide], the remaining activity at 10 µM in test [1] (setting [5]) worked out at 11%. The IC50 in test [2] (setting [4]) amounted to 200 nM.

Regarding `Cn1cc(Br)c(-c2cccc(NC(=O)Nc3ccccc3[N+](=O)[O-])c2)n1` [Compound 116089, {[3-(4-bromo-1-methylpyrazol-3-yl)phenyl]-amino}-N-(2-nitrophenyl)carboxamide], the remaining activity at 10 µM in test [1] (setting [5]) is 27%. For the same compound, the IC50 in test [2] (setting [4]) turned out to be 238 nM.

On to `COc1ccc(NC(=O)Nc2cccc(-c3nn(C)cc3Br)c2)cc1` [Compound 116091, {[3-(4-bromo-1-methylpyrazol-3-yl)phenyl]-amino}-N-(4-methoxyphenyl)carboxamide], for which the remaining activity at 10 µM in test [1] was 12%. Also, the IC50 in test [2] (setting [4]) came out at 19 nM.

Take `Cc1ccccc1NC(=O)Nc1cccc(-c2nn(C)cc2Br)c1` [Compound 116092, {[3-(4-bromo-1-methylpyrazol-3-yl)phenyl]amino}-N-(2-methylphenyl)carboxamide]: the remaining activity at 10 µM in test [1] (setting [5]) was determined as 32%. Besides, in test [2] (setting [4]), the IC50 came to 131 nM.

Take `Cn1cc(Br)c(-c2cccc(NC(=O)Nc3ccc(C(F)(F)F)cc3)c2)n1` [Compound 116097, {[3-(4-bromo-1-methylpyrazol-3-yl)phenyl]-amino}-N-[4-(trifluoromethyl)phenyl]carboxamide]: the remaining activity at 10 µM in test [1] was determined as 11%. The IC50 in test [2] (setting [4]) is 65 nM.

In the case of `Cn1cc(Br)c(-c2cccc(NC(=O)Nc3cccc(Cl)c3)c2)n1` [Compound 116105, {[3-(4-bromo-1-methylpyrazol-3-yl)phenyl]-amino}-N-(3-chlorophenyl)carboxamide], the remaining activity at 10 µM in test [1] came out at 11%. Moreover, the half-maximal inhibitory concentration (IC50) in test [2] (setting [4]) is 39 nM.

`Cn1cc(Br)c(-c2cccc(NC(=O)Nc3ccccc3Cl)c2)n1` [Compound 116108, {[3-(4-bromo-1-methylpyrazol-3-yl)phenyl]-amino}-N-[2-chlorophenyl)carboxamide]: the remaining activity at 10 µM in test [1] (setting [5]) was 6%. Moreover, in test [2] (setting [4]), the IC50 was determined as 249 nM.

For the compound `CC(C)c1ccc(NC(=O)Nc2cccc(-c3nn(C)cc3Br)c2)cc1` [Compound 116110, {[3-(4-bromo-1-methylpyrazol-3-yl)phenyl]amino}-N-[4-(methylethyl)phenyl]carboxamide], the “IP3 % of Control” value in test [1] (setting [5]) came to 7%. Besides, the IC50 in test [2] (setting [4]) worked out at 338 nM.

Turning to `COc1cccc(NC(=O)Nc2cccc(-c3nn(C)cc3Br)c2)c1` [Compound 116111, {[3-(4-bromo-1-methylpyrazol-3-yl)phenyl]-amino}-N-(3-methoxyphenyl)carboxamide], the remaining activity at 10 µM in test [1] (setting [5]) turned out to be 7%. In test [2] (setting [4]), the IC50 was 106 nM.

With `Cc1cccc(NC(=O)Nc2cccc(-c3nn(C)cc3Br)c2)c1` [Compound 116112, [{3-(4-bromo-1-methylpyrazol-3-yl)phenyl}-amino]-N-(3-methylphenyl)carboxamide], in test [1], the remaining activity at 10 µM is 14%. In test [2] (setting [4]), the IC50 was 57 nM.

On to `CN(C(=O)Nc1cccc(-c2nn(C)cc2Br)c1)c1ccc(OC(F)(F)F)cc1` [Compound 116113, [{3-(4-bromo-1-methylpyrazol-3-yl)phenyl}-amino]-N-methyl-N-[4-(trifluoromethoxy)phenyl]carboxamide], for which the results for the IC50 in test [1] (setting [3]) and in test [2] (setting [4]) were 193 nM and 2 nM, respectively.

For `Cn1cc(Br)c(-c2cccc(NC(=O)Nc3ccc(C(C)(C)C)cc3)c2)n1` [Compound 116119, N-[4-(tert-butyl)phenyl]{[3-(4-bromo-1-methylpyrazol-3-yl)phenyl]amino}carboxamide], the remaining activity at 10 µM in test [1] (setting [5]) turned out to be 17%. For the same compound, the IC50 in test [2] (setting [4]) came to 476 nM.

As to `CN(C)c1ccc(NC(=O)Nc2cccc(-c3nn(C)cc3Br)c2)cc1` [Compound 116122, N-[4-(dimethylamino)phenyl]{[3-(4-bromo-1-methylpyrazol-3-yl)phenyl]amino}carboxamide], the remaining activity at 10 µM in test [1] (setting [5]) was 9%. Further, the IC50 in test [2] (setting [4]) worked out at 309 nM.

On to `Cn1cc(Br)c(-c2cccc(NC(=O)Cc3ccc(OC(F)(F)F)cc3)c2)n1` [Compound 116137, N-[3-(4-bromo-1-methylpyrazol-3-yl)phenyl]-2-[4-(trifluoromethoxy)-phenyl]acetamide], for which the IC50 in test [2] (setting [4]) was 106 nM.

Regarding `Cc1c(Cl)cc(NC(=O)Nc2cccc(-c3nn(C)cc3Br)c2)cc1Cl` [Compound 116138, N-(3,5-dichloro-4-methylphenyl){[3-(4-bromo-1-methylpyrazol-3-yl)phenyl]amino}carboxamide], the remaining activity at 10 µM in test [1] (setting [5]) was determined as 23%. In addition, in test [2] (setting [4]), the 50% inhibitory concentration (IC50) came out at 122 nM.

As for `Cn1cc(Br)c(-c2cccc(NC(=O)Nc3ccc(SC(F)(F)F)cc3)c2)n1` [Compound 116139, {[3-(4-bromo-1-methylpyrazol-3-yl)phenyl]-amino}-N-[4-(trifluoromethylthio)phenyl]carboxamide], the remaining activity at 10 µM in test [1] worked out at 12%. Also, the IC50 in test [2] (setting [4]) stood at 56 nM.

As to `Cn1cc(Br)c(-c2cccc(NC(=O)NC3CCCCC3)c2)n1` [Compound 116141, N-[3-(4-bromo-1-methylpyrazol-3-yl)phenyl]-[cyclohexylamino]carboxamide], the IC50 in test [1] (setting [3]) was 114 nM; in test [2] (setting [4]), 81 nM.

In the case of `Cn1cc(Br)c(-c2cccc(NC(=O)NCc3ccccc3)c2)n1` [Compound 116143, N-[3-(4-bromo-1-methylpyrazol-3-yl)phenyl]-[phenylmethylamino]carboxamide], the IC50 worked out at 120 nM in test [1] (setting [3]) and 47 nM in test [2] (setting [4]).

For the compound `Cn1cc(Br)c(-c2cccc(NC(=O)Nc3ccccc3F)c2)n1` [Compound 116144, {[3-(4-bromo-1-methylpyrazol-3-yl)phenyl]-amino}-N-(2-fluorophenyl)carboxamide], the remaining activity at 10 µM in test [1] worked out at 12%. For the same compound, the IC50 in test [2] (setting [4]) stood at 37 nM.

Consider `Cn1cc(Br)c(-c2cccc(NC(=O)Nc3ccccc3C(N)=O)c2)n1` [Compound 116145, 2-({[3-(4-bromo-1-methylpyrazol-3-yl)phenyl]-amino}carbonylamino)benzamide], for which the remaining activity at 10 µM in test [1] (setting [5]) stood at 31%. Besides, the IC50 in test [2] (setting [4]) was 7470 nM.

Consider `Cn1cc(Br)c(-c2cccc(NC(=O)Nc3ccc(C#N)cc3)c2)n1` [Compound 116147, {[3-(4-bromo-1-methylpyrazol-3-yl)phenyl]-amino}-N-(4-cyanophenyl)carboxamide], for which the remaining activity at 10 µM in test [1] was 12%. Moreover, the IC50 in test [2] (setting [4]) stood at 2 nM.

For `Cn1cc(Br)c(-c2cccc(NC(=O)Nc3ccccc3C#N)c2)n1` [Compound 116148, {[3-(4-bromo-1-methylpyrazol-3-yl)phenyl]-amino}-N-(2-cyanophenyl)carboxamide], in test [1] (setting [5]), the remaining activity at 10 µM amounted to 30%. The IC50 in test [2] (setting [4]) was found to be 348 nM.

Take `Cn1cc(Br)c(-c2cccc(NC(=O)Cc3cccc(F)c3)c2)n1` [Compound 116174, N-[3-(4-bromo-1-methylpyrazol-3-yl)phenyl]-2-(3-fluorophenyl)acetamide]: the IC50 came to 153 nM in test [1] (setting [3]) and 318 nM in test [2] (setting [4]).

In the case of `COc1ccc(CNC(=O)Nc2cccc(-c3nn(C)cc3Br)c2)cc1OC` [Compound 116183, N-[3-(4-bromo-1-methylpyrazol-3-yl)phenyl]-[{(3,4-dimethoxyphenyl)methyl}amino-]carboxamide], the IC50 in test [2] (setting [4]) is 1010 nM.

For the compound `COc1cc(CNC(=O)Nc2cccc(-c3nn(C)cc3Br)c2)cc(OC)c1OC` [Compound 116184, N-[3-(4-bromo-1-methylpyrazol-3-yl)phenyl]-[{(3,4,5-trimethoxyphenyl)methyl}amino]-carboxamide], in test [2] (setting [4]), the IC50 came out at 2960 nM.

With `Cc1ccccc1CNC(=O)Nc1cccc(-c2nn(C)cc2Br)c1` [Compound 116185, N-[3-(4-bromo-1-methylpyrazol-3-yl)phenyl][{(2-methylphenyl)methyl}amino]carboxamide], in test [2] (setting [4]), the IC50 worked out at 769 nM.

For `COc1ccc(CNC(=O)Nc2cccc(-c3nn(C)cc3Br)c2)cc1` [Compound 116189, N-[3-(4-bromo-1-methylpyrazol-3-yl)phenyl][{(4-methoxyphenyl)methyl}amino]carboxamide], in test [2] (setting [4]), the IC50 turned out to be 102 nM.
